For three compounds, Emax results are on record in US20250223296A1, “HYDROXYMETHYL AZABICYCLO[2.2.1]HEPTANES AND MEDICAL USES THEREOF” (ATROGI AB, priority 2022, published 2025).

Structures can show the parent of a compound that is named as a salt.

Assay [1] concerns L6-myotubes. The experiment in a line: Glucose uptake (3H-2-deoxyglucose) in differentiated L6-myotubes. It is filed as cell-based. The settings on record: compound at 10 µM (1×10^−5 M) vs isoproterenol at 10 µM, read-out: Biological example 1: glucose uptake, activity compared to that of isoproterenol. How it is done: L6-myoblasts were grown in Dulbecco's Modified Eagle's Medium (DMEM) containing 1 g/L glucose supplemented with 10% fetal bovine serum, 2 mM L-Glutamine, 50 U/ml penicillin, 50 μg/mL streptomycin and 10 mM HEPES. Cells were plated at 1×10^5 cells per mL in 24-well plates. After reaching 90% confluence the cells were grown in medium containing 2% FBS for 7 days where upon cells differentiated into myotubes. Differentiated L6-myotubes were serum-starved overnight in medium containing 0.5% fatty-acid free BSA and stimulated with an agonist, with a final concentration of 1×10^−5 M. After 1 h 40 min the cells were washed with warm glucose free medium or PBS twice and another portion of agonist was added to the glucose free medium. After 20 min the cells were exposed to 50 nM ^3H-2-deoxyglucose for another 10 min before washed in ice cold glucose free medium or PBS three times and lysed in 400 μL/well 0.2 M NaOH for 1 h at 60° C. The cell lysate was mixed with 4 mL scintillation buffer (Emulsifier Safe, Perkin Elmer) and the radioactivity was detected in a β-counter (Tri-Carb 4810TR, Perkin Elmer). The activity for each compound is compared to that of isoproterenol.

The subject of assay [2] is L6-myotubes. Briefly: Measurement of intracellular cAMP levels in differentiated L6 cells. The format is cell-based. The settings on record: Rattus norvegicus, L6, 0.25 h, compound at 10 µM (1×10^−5 M), 15 min, vs isoproterenol at 10 µM, read-out: Biological example 2: intracellular cAMP levels, activity compared to that of isoproterenol. The method, then:
L6-myoblasts were grown in Dulbecco's Modified Eagle's Medium (DMEM) containing 1 g/L glucose supplemented with 10% fetal bovine serum, 2 mM L-Glutamine, 50 U/ml penicillin, 50 μg/mL streptomycin and 10 mM HEPES. Cells were plated at 1×10^5 cells per mL in 24-well plates. After reaching 90% confluence the cells were grown in medium containing 2% FBS for 7 days where upon cells differentiated into myotubes. Differentiated cells were serum-starved overnight and stimulated with an agonist, final concentration 1×10^−5 M, for 15 min in stimulation buffer (HBSS supplemented with 1% BSA, 5 mM HEPES and 1 mM IBMX, pH 7.4). The medium was aspirated and 100 μL of 95% EtOH was added to each well of the 24-well plate and cells were kept at −20° C. overnight. The EtOH was allowed to evaporate and 500 μL of lysis buffer (1% BSA, 5 mM HEPES and 0.3% Tween-20, pH 7.4) was added to each well. The plate was kept at −80° C. for 30 min and then at −20° C. until the day of detection when the samples were thawed. Intracellular cAMP levels were detected using an alpha screen CAMP kit (6760635D from Perkin Elmer). The activity for each compound is compared to that of isoproterenol.
For orientation: Changes in cAMP serve as a functional read-out for many G protein-coupled receptors.

For `COc1ccc(CCC23CCC([C@@H](O)c4cccc(F)c4)(CC2)N3)cc1` [Example 40, (S)-(3-Fluorophenyl)(4-(4-methoxyphenethyl)-7-azabicyclo[2.2.1]heptan-1-yl)methanol acetate], the Emax at 10 µM in assay [1] and in assay [2] was less than 25% in each case.
For `COc1ccc(CCC23CCC([C@H](O)c4cncc(F)c4)(CC2)N3)cc1` [Example 41, (R)-(5-Fluoropyridin-3-yl)(4-(4-methoxyphenethyl)-7-azabicyclo-[2.2.1]heptan-1-yl)methanol dihydrochloride], the Emax at 10 µM in assay [1] was 50 to 75%; in assay [2], 25 to 50%.
The corresponding values for `COc1ccc(CCC23CCC([C@@H](O)c4cncc(F)c4)(CC2)N3)cc1` [Example 42, (S)-(5-Fluoropyridin-3-yl)(4-(4-methoxyphenethyl)-7-azabicyclo-[2.2.1]heptan-1-yl)methanol dihydrochloride] are less than 25% and less than 25%.
